Test results reported in patent publication US9987276B2 (Celgene CAR LLC, priority 2008, dated 2018).

Legend:
BTK [1] = molecular target: T1, BTK (Homo sapiens (Human), UniProt Q06187); assay: Washout experiment with Ramos cells; type: cell-based; conditions: 100 nM compound for 1 hour, then washout
Summary of the method: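 Serum-starved Ramos cells exposed to 100 nM compound for 1 h, then washed and kept in compound-free medium, rewashed every 2 h. At timepoints, BCR stimulated with anti-human IgM for 10 min on ice; BTK activity read as PLCγ2 phosphorylation by western blot.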

ITK = ITK (Homo sapiens (Human), UniProt Q08881); assay: Omnia assay for potency assessment against active forms of ITK kinase; type: biochemical; conditions: [ITK]=10 nM, [ATP]=25, [Y6-Sox]=10 μM; read-out: ITK Inhibition
Chain of ITK (Q08881 whole entry): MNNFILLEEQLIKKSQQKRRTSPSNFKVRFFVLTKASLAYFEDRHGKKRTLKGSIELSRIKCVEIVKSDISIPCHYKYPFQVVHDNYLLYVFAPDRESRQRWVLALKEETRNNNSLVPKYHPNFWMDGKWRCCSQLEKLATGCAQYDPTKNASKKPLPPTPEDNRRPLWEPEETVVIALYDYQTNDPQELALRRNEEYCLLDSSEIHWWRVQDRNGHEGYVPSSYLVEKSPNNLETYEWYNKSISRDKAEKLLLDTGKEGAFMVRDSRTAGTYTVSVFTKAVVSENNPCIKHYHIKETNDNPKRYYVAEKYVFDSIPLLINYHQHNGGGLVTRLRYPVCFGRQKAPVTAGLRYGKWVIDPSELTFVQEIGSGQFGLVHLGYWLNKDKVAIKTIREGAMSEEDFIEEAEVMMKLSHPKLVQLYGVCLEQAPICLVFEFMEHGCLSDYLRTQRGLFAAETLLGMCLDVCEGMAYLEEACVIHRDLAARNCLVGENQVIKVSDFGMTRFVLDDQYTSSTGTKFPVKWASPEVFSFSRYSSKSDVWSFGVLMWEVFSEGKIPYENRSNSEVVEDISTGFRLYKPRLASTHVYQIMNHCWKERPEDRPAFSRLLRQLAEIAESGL
Description: [ITK]=10 nM, [ATP]=25 [Y6-Sox]=10 μM (ATP KMapp=33 μM).

BTK [2] = molecular target: T1, BTK; assay: BTK Ramos cellular assay (PLCγ2 phosphorylation); type: cell-based; conditions: Ramos cells, 1 hour compound, anti-IgM stimulation, p-PLCγ2; read-out: BTK Inhibition (IC50), BTK Ramos cellular inhibition
BTK [3] = molecular target: T1, BTK; assay: Omnia assay for potency assessment against BTK; type: biochemical; conditions: [BTK]=5 nM, Omnia assay; read-out: BTK Inhibition (IC50)
Description: The modified BTK-optimized reagent conditions for the above protocol are:
[BTK]=5 nM, [ATP]=[…], [Y5-Sox]=[…] (ATP KMapp˜[…]).

EGFR-T790M/L858R = EGFR-T790M/L858R (Homo sapiens (Human), UniProt P00533, L858R/T790M); assay: Omnia assay for potency assessment against EGFR (T790M/L858R); conditions: read-out: EGFR (T790M/L858R); EGFR mutant T790M/L858R
Chain of EGFR-T790M/L858R (P00533 25-1210 T790M/L858R): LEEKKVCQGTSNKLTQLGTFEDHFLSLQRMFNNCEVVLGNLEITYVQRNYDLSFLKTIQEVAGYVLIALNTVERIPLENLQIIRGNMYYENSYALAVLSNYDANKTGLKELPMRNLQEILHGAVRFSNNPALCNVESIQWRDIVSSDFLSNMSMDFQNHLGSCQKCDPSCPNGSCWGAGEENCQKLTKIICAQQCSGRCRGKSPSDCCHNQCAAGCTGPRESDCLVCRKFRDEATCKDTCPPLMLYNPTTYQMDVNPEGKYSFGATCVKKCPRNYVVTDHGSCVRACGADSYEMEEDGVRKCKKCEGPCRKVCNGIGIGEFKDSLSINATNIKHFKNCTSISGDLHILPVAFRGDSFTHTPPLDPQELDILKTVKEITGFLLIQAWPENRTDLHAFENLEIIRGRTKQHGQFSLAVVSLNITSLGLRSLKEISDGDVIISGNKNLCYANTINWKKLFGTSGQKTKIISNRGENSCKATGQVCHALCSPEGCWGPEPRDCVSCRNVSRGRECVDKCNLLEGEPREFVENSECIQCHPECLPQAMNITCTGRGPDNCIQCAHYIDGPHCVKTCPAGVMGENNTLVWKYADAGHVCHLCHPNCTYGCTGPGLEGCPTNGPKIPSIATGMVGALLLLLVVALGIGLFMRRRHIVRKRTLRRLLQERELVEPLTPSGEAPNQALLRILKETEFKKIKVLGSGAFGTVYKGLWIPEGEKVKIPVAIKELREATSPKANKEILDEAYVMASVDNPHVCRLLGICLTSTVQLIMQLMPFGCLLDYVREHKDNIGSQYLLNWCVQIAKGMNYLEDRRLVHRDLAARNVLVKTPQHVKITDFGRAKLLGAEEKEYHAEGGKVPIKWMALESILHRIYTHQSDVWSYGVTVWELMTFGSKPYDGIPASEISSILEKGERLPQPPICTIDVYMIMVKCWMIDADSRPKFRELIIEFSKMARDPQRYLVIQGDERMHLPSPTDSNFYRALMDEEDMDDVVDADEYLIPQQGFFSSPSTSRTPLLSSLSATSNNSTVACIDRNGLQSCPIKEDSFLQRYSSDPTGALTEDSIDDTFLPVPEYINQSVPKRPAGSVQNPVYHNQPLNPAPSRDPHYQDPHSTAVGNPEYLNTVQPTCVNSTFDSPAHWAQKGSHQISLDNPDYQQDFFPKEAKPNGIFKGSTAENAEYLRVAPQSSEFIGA

EGFR-WT = EGFR-WT (Homo sapiens (Human), UniProt P00533); assay: Omnia assay for potency assessment against EGFR (WT); conditions: read-out: EGFR (wild type inhibition); EGFR wild type
Chain of EGFR-WT (P00533 668-1210): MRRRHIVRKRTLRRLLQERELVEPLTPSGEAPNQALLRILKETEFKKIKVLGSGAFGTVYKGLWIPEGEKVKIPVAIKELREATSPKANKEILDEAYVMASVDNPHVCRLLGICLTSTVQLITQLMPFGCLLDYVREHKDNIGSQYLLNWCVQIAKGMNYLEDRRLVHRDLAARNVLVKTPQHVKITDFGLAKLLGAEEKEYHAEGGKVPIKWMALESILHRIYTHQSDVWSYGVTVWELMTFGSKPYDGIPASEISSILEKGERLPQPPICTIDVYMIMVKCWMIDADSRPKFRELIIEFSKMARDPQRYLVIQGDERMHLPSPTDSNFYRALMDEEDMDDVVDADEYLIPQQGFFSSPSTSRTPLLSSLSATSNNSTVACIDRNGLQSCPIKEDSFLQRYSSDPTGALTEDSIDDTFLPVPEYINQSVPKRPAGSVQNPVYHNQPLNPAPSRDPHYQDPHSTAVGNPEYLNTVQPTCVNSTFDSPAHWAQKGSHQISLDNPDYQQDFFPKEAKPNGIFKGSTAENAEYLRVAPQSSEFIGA

T1 sequence (Q06187 whole entry): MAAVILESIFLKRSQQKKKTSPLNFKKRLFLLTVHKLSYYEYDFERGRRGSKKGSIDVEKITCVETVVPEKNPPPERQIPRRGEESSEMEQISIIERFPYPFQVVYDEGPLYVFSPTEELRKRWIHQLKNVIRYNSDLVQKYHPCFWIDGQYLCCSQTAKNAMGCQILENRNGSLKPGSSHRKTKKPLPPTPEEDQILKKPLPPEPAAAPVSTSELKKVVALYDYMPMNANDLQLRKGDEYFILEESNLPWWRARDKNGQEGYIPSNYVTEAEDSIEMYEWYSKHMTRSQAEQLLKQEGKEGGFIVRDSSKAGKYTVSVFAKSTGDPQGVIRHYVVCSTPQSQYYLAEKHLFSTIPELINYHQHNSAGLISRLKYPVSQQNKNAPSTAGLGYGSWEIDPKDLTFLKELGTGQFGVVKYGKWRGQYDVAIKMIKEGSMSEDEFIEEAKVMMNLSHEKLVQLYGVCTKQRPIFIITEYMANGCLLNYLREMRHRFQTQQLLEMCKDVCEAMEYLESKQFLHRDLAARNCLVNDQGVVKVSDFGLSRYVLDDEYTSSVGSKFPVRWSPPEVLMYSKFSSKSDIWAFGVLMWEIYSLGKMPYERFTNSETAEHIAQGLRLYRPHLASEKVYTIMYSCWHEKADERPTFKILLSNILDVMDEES

BTK Inhibition Type (BTK [1]) | IC50 (ITK) | IC50 (BTK [2]) | IC50 (BTK [3]) | IC50 (EGFR-T790M/L858R) | IC50 (EGFR-WT) | SMILES
irreversible | 10 to 100 nM | 10 to 100 nM | < 10 nM | < 10 nM | < 10 nM | Cc1cccc(Nc2nc(Nc3cccc(NC(=O)/C=C/CN(C)C)c3)ncc2F)c1 [Compound I-4, (E)-4-(dimethylamino)-N-(3-(5-fluoro-4-(m-tolylamino)pyrimidin-2-ylamino)phenyl)but-2-enamide]
irreversible | < 10 nM | < 10 nM | < 10 nM | < 10 nM | < 10 nM | C=CC(=O)Nc1cccc(Nc2nc(Nc3ccccc3)ncc2C)c1 [Compound I-7, N-(3-(5-methyl-2-(phenylamino)pyrimidin-4-ylamino)phenyl) acrylamide]
